Laboratory results from patent US20240269139A1, “COMPOUNDS FOR TARGETED PROTEIN DEGRADATION OF KINASES” (DANA-FARBER CANCER INSTITUTE, INC., priority 2020, published 2024).
Like-named read-outs stand apart in the source and are kept apart here.

Key:
[1] = target: T1, protein kinases (human kinome) (Homo sapiens, UniProt Q6PHR2); format: cell-based; conditions: for logFC ULK3: ULK3 (Q6PHR2-1)
T1 sequence (Q6PHR2 1-472): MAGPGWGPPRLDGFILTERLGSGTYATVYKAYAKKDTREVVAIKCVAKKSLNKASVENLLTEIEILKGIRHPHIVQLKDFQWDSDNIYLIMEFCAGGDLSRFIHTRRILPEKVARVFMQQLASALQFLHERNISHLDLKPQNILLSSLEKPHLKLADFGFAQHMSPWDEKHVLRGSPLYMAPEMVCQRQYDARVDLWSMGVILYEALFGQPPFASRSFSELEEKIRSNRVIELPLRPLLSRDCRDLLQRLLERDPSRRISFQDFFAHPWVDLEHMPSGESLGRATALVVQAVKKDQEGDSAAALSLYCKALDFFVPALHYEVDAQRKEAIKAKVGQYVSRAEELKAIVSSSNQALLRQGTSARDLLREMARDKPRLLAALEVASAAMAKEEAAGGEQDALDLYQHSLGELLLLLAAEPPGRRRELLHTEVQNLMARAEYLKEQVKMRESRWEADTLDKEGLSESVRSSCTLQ

[2] = target: T2, GCK (Homo sapiens, UniProt Q12851); assay: KiNativ live cell profiling, GCK; format: cell-based, H. sapiens; conditions: MOLT-4 CRBN−/− cells, 1 μM, 5 h
T2 construct: host or cells: CRBN-/- MOLT-4
T2 sequence (Q12851 1-820): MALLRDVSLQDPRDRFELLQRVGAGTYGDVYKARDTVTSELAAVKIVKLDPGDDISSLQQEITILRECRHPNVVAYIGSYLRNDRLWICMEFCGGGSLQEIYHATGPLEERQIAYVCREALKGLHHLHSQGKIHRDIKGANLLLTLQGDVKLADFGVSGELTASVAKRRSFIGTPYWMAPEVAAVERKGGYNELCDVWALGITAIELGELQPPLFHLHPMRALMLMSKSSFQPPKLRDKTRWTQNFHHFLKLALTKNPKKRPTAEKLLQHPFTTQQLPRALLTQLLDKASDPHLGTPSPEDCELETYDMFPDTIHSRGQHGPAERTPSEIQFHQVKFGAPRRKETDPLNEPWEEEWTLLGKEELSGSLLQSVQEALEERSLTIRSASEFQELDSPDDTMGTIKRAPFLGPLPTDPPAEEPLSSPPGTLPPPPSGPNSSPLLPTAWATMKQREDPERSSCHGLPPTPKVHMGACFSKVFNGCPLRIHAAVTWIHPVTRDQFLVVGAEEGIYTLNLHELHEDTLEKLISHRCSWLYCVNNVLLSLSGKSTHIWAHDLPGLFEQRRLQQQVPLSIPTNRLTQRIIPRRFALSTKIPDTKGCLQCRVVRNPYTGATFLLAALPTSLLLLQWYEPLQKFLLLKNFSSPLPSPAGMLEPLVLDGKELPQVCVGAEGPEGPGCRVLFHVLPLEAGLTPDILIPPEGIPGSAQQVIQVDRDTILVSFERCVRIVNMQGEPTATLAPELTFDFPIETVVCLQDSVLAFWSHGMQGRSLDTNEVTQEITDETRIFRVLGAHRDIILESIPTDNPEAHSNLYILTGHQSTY
Method: One of the key features of degraders is their potential for a sub-stoichiometric mode of action (Paiva and Crews, Curr Opin Chem Biol 50:111-119 (2019)). […] While this has been confirmed in a limited number of individual studies, the generalizability of this hypothesis was tested across the kinome. […] The focus of this test was to establish whether cellular target engagement (target occupancy) correlates with degrader efficacy. […] KiNativ™ is an activity based chemoproteomic assay, which measures the ability of a small molecule of interest to block the binding of a covalent ATP-mimetic probe. […] Furthermore, the proportion of degraded kinases with detectable binding varied dramatically from compound to compound, and was unrelated to cellular permeability (FIG. 3F).
CRBN^−/− MOLT-4 cells were plated in fresh media (RPMI-1640+10% FBS) in 15 cm plates and treated for 5 hours with candidate compounds. To harvest cells, plates were harvested using detachment using CellStripper™ detachment solution (Corning®) and washed 2× with cold phosphate-buffered saline (abbreviated PBS), followed by centrifugation and snap-freezing of cell pellets in liquid nitrogen. The remainder of the KiNativ® profiling experiment was performed by ActivX® Biosciences (La Jolla. CA).

With CS(=O)(=O)Nc1cccc(-c2csc3cnc(Nc4ccc(N5CCN(CCCCCOc6cccc7c6C(=O)N(C6CCC(=O)NC6=O)C7=O)CC5)cc4)nc23)c1 (stereo not shown) [DB0614, N-(3-(2-((4-(4-(5-((2-(2,6-Dioxopiperidin-3-yl)-1,3-dioxoisoindolin-4-yl)oxy)pentyl)piperazin-1-yl)phenyl)amino)thieno[3,2-d]pyrimidin-7-yl)phenyl)methanesulfonamide] the “logFC ULK3” value ([1]; experiment wp045) was −0.9461, the “logFC ULK3” value ([1]; experiment wp117) was −0.8307 and the “logFC ULK3 (Q6PHR2-1)” value ([1]; experiment wp045) was −0.9461. For the same molecule, the “logFC ULK3 (Q6PHR2-1)” value ([1]; experiment wp117) was −0.8307.
With Cc1ccc(NC(=O)c2cccc(C(F)(F)F)c2)cc1N1Cc2cnc(Nc3ccc(N4CCN(Cc5cn(CCCCCOc6cccc7c6C(=O)N(C6CCC(=O)NC6=O)C7=O)nn5)CC4)nc3)nc2N(C)C1=O (stereo not shown) [DB0646, N-(3-(7-((6-(4-((1-(5-((2-(2,6-Dioxopiperidin-3-yl)-1,3-dioxoisoindolin-4-yl)oxy)pentyl)-1H-1,2,3-triazol-4-yl)methyl)piperazin-1-v)pyridin-3-yl)amino)-1-methyl-2-oxo-1,4-dihydropyrimido[4,5-d]pyrimidin-3(2H)-yl)-4-methylphenyl)-3-(trifluoromethyl)benzamide] the “GCK inhibition of probe binding (KiNativ)” value (“GCK inhibition” below) [2] was 58 % I.
With CS(=O)(=O)Nc1cccc(-c2csc3cnc(Nc4ccc(N5CCN(CCOCCOCCOc6cccc7c6C(=O)N(C6CCC(=O)NC6=O)C7=O)CC5)cc4)nc23)c1 (stereo not shown) [RSS0628] the “logFC ULK3” value ([1]; experiment wp045) was −1.086 and the “logFC ULK3 (Q6PHR2-1)” value ([1]; experiment wp045) was −1.086.
Cc1ccc(C(=O)Nc2ccc(CN3CCN(CCCOCCOCCOCCNC(=O)COc4cccc5c4C(=O)N(C4CCC(=O)NC4=O)C5=O)CC3)c(C(F)(F)F)c2)cc1C#Cc1cnc2cccnn12 (stereo not shown) [SB1-G-187, N-(4-((4-(1-((2-(2,6-dioxopiperidin-3-yl)-1,3-dioxoisoindolin-4-yl)oxy)-2-oxo-6,9,12-trioxa-3-azapentadecan-15-yl)piperazin-1-yl)methyl)-3 (trifluoromethyl)phenyl)-3-(imidazo[1,2-b]pyridazin-3-ylethynyl)-4-methylbenzamide] was tested, and the “GCK inhibition” value [2] was 94 % I.
In the case of CC(C)S(=O)(=O)c1ccccc1Nc1nc(Nc2ccc(N3CCN(CCOCCNC(=O)CNc4cccc5c4C(=O)N(C4CCC(=O)NC4=O)C5=O)CC3)cc2)ncc1Cl (stereo not shown) [SK-3-91], the “GCK inhibition” value [2] was 50 % I.
With CC(C)S(=O)(=O)c1ccccc1Nc1nc(Nc2ccc(N3CCN(CCOCCNC(=O)CNc4cccc5c4C(=O)N(C4CCC(=O)NC4=O)C5=O)CC3)cc2)ncc1Cl (stereo not shown) [SK.3.91] the “logFC ULK3 (Q6PHR2-1)” value ([1]; Experiment wp160, 2 hr) was −0.503, the “logFC ULK3 (Q6PHR2-1)” value ([1]; Experiment wp172) was −0.8151 and the “logFC ULK3” value ([1]; experiment wp016, 1 uM) was −1.03. The “logFC ULK3” value ([1]; experiment wp103) was −0.9651, the “logFC ULK3” value ([1]; experiment wp105) was −0.837 and the “logFC ULK3” value ([1]; experiment wp133, 2 hr) was −0.5817. For the same molecule, the “logFC ULK3” value ([1]; experiment wp133, 4 hr) was −1.062, the “logFC ULK3” value ([1]; experiment wp160, 2 hr) was −0.503 and the “logFC ULK3” value ([1]; experiment wp160, 4 hr) was −0.9689. For the same molecule, the “logFC ULK3” value ([1]; experiment wp172) was −0.8151, the “logFC ULK3 (Q6PHR2-1)” value ([1]; experiment wp016, 1 uM) was −1.03 and the “logFC ULK3 (Q6PHR2-1)” value ([1]; experiment wp103) was −0.9651. For the same molecule, the “logFC ULK3 (Q6PHR2-1)” value ([1]; experiment wp105) was −0.837, the “logFC ULK3 (Q6PHR2-1)” value ([1]; experiment wp133, 2 hr) was −0.5817 and the “logFC ULK3 (Q6PHR2-1)” value ([1]; experiment wp133, 4 hr) was −1.062. For the same molecule, the “logFC ULK3 (Q6PHR2-1)” value ([1]; experiment wp160, 4 hr) was −0.9689.
With CC(C)S(=O)(=O)c1ccccc1Nc1nc(Nc2ccc(N3CCN(CCOCCOCCNC(=O)CNc4cccc5c4C(=O)N(C4CCC(=O)NC4=O)C5=O)CC3)cc2)ncc1Cl (stereo not shown) [TL12.186] the “logFC ULK3” value ([1]; experiment wp131) was −1.074, the “logFC ULK3” value ([1]; experiment wp137) was −1.174 and the “logFC ULK3 (Q6PHR2-1)” value ([1]; experiment wp131) was −1.074. The “logFC ULK3 (Q6PHR2-1)” value ([1]; experiment wp137) was −1.174.
With CC(C)S(=O)(=O)c1ccccc1Nc1nc(Nc2ccc(N3CCN(CCOCCOCCC(=O)NCCNc4cccc5c4CN(C4CCC(=O)NC4=O)C5=O)CC3)cc2)ncc1Cl (stereo not shown) [TL13.97] the “logFC ULK3” value ([1]; experiment wp137) was −0.3729 and the “logFC ULK3 (Q6PHR2-1)” value ([1]; experiment wp137) was −0.3729.
